In brackets after ≈: the same amount, converted by molar mass.
The compounds below were run on Gram negative bacteria, Gram positive bacteria and pathogenic yeasts (assay: MIC agar dilution, summary statements over the micro-organisms tested (Tables I, IX)). Conditions: read-out: MIC.
Format: cell-based
Text: For a better understanding, the present invention will now be more particularly described, by way of non-limiting example only, as follows. The micro-organisms shown in Table I overleaf were acquired from the National Collection of Type Cultures (NCTC), Colindale, United Kingdom; the American Type Culture Collection (ATCC), Manassas, United States and the National Collection of Pathogenic Fungi (NCPF), Colindale, United Kingdom. They include Gram negative bacteria, Gram positive bacteria and pathogenic yeasts.
(§1) Throughout the period of testing the microbial strains were subcultured and incubated for 18-20 hours at 37° C. on a weekly basis. Horse blood agar plates were used to sustain the micro-organisms both prior to and throughout testing. The alkoxylated alkanols listed in Table II below were obtained (these are obtainable from Sigma-Aldrich Company Ltd, Dorset, England), each having a GC purity of at least 97%.
(§2) Molar equivalent concentrations were used to allow comparison between compounds of differing molecular mass. Due to weighing difficulties, any compound in solid form was melted in a water bath prior to dilution. To make ten-times strength concentrations, which takes into account agar dilution, 0.0352 mmol of each compound was weighed into plastic universal bottles and 4 mL of sterile distilled water (SDW) was added. To produce a homogenous emulsion the universals were vortexed; once achieved the emulsions were serial diluted by adding 2 mL to 2 mL of SDW.
(§3) Myristyl alcohol and lauryl alcohol were re-weighed and dissolved in 25 μL of the polar solvent 1-methyl-2-pyrrolidone (M6762; Sigma-Aldrich) in sterile glass universals due to an inability to achieve an even suspension. To maintain an even emulsion in the presence of SDW 37.5 μL of the non-ionic detergent Tween 20 (P1379, Sigma-Aldrich) was also added. 3.9375 mL of SDW was added to these, to create a 4 mL volume; they were vortexed and diluted as before.
(§4) For every 100 mL of Isosensitest agar (IST) (CM0471; Oxoid, Basingstoke, England), 3.1 g of the IST powder was added to 100 mL SDW (as per manufacturer's instructions) and sterilised for 15 minutes at 121° C. Once sterilised, the molten agar was cooled to 50° C. in a water-bath. Subsequently 4.8 g of CCEY powder (BC2160; Bioconnections, Wetherby, England), also known as Brazier's medium, was added to 100 mL SDW for every 100 mL of agar needed. This was then sterilised for 15 minutes at 121° C. Once sterilised the molten agar was cooled to 50° C. in a water-bath and 4 mL of egg-yolk emulsion (S2073; TCS Biosciences Ltd, Buckingham, United Kingdom) and 1 mL of lysed defibrinated horse blood (HB035; TCS Biosciences Ltd, Buckingham, United Kingdom) were also added for every 100 mL needed. Horse blood lysis is achieved by dilution to half concentration with SDW; when fully lysed the mixture will turn dark red in colour.
(§5) 18 mL agar was added to each universal and then poured into sterile Petri dishes. This step creates a 1/10 dilution resulting in agar plates of the required strength. Control plates for each set of strains were created by adding 18 mL of agar to 2 mL of SDW.
(§6) Suspensions of each bacterial species were prepared with a density equal to that of a 0.5 McFarland standard using a densitometer. All suspensions were made using sterile distilled water and fresh 18-20 hour cultures. As a 0.5 McFarland standard contains 1.5×10^8 CFU/mL and the multipoint inoculators applies 1 μL spots of liquid, each bacterial suspension was diluted 1/15 (20 μL suspension to 280 μL sterile distilled water).
Bacterial suspensions were prepared from fresh 18-24 hour cultures as previously described. 1 μL of each strain was inoculated onto all 100 agar plates containing a different chemical concentration and the 2 control plates. This was done using a multipoint inoculator which inoculates 20 strains per plate. All plates were incubated for 22 hours at 37° C. in aerobic conditions. […]

SMILES	MIC
CCCCCCCCCCCCOCCOCCOCCOCCO [L4, Tetraethylene Glycol Monododecyl Ether]	~110 µM (≈ 39.9 µg/mL)

These compounds were tested on MRSA EMRSA 16 00998/95 (assay: MIC agar dilution, MRSA strain 47). Conditions: Staphylococcus aureus, 22 hrs.
Format: cell-based
Experimental: as §2, §4, §5, §6
(§7) Bacterial suspensions were prepared from fresh 18-24 hour cultures as previously described. 1 μL of each strain was inoculated onto all 100 agar plates containing a different chemical concentration and the 2 control plates. This was done using a multipoint inoculator which inoculates 20 strains per plate. All plates were incubated for 22 hours at 37° C. in aerobic conditions.
(§8) Each plate was examined for bacterial growth after 22 and 48 hours, with each being incubated in between examinations. A positive result was recorded as growth of ≧10 colonies. A negative result was recorded as growth of <10 colonies as this is equivalent to 99.9% inhibition. The lowest concentration of chemical that inhibited growth was recorded as the MIC. The results are recorded in Table IV below, where the numbers are quoted in mmol/L.
(§9) Given the positive performance of the ethoxylates of lauryl alcohol in reducing the MIC for a number of the micro-organisms tested, further MIC testing of Laureth-1 [C12E1] through to Laureth-8 [C12E8] was conducted on each of the following: • 10 strains of vancomycin-resistant enterococci (VRE)—listed in Table V below; and • 20 strains of methicillin-resistant Staphylococcus aureus (MRSA)—listed in Table VI.
(§10) The alkanol, alkanol derivatives, agar plates, and inocula were all prepared in the same way as described above.
(§11) The plates were examined in the same manner as described above and the results are recorded in Table VII below, where the numbers are quoted in mmol/L.

SMILES	MIC
CCCCCCCCCCCCOCCOCCOCCOCCOCCOCCOCCO [L7, Heptaethylene Glycol Monododecyl Ether]	> 440 µM
CCCCCCCCCCCCOCCOCCO [L2, Diethylene Glycol Monododecyl Ether]	110 µM (≈ 30.2 µg/mL)
CCCCCCCCCCCCOCCOCCOCCOCCOCCOCCOCCOCCO [L8, Octaethylene Glycol Monododecyl Ether]	> 440 µM
CCCCCCCCCCCCOCCOCCOCCOCCO [L4, Tetraethylene Glycol Monododecyl Ether]	55 µM (≈ 19.9 µg/mL)

Same assay, conditions: Staphylococcus aureus, 48 hrs

SMILES	MIC
CCCCCCCCCCCCOCCOCCOCCOCCOCCOCCOCCO [L7, Heptaethylene Glycol Monododecyl Ether]	> 440 µM
CCCCCCCCCCCCOCCOCCO [L2, Diethylene Glycol Monododecyl Ether]	110 µM (≈ 30.2 µg/mL)
CCCCCCCCCCCCOCCOCCOCCOCCOCCOCCOCCOCCO [L8, Octaethylene Glycol Monododecyl Ether]	> 440 µM
CCCCCCCCCCCCOCCOCCOCCOCCO [L4, Tetraethylene Glycol Monododecyl Ether]	55 µM (≈ 19.9 µg/mL)

The compounds below were run on Enterobacter cloacae (assay: MIC agar dilution, micro-organism 4 (11936)). Conditions: Enterobacter cloacae 11936; 22 hrs; read-out: MIC.
Format: cell-based
Experimental: as §1, §2, §3, §4, §5, §6, §7, §8
(§12) Further experiments have also been conducted to determine the MIC of a number of other compositions as follows. […]

SMILES	MIC
CCCCCCCCCCCCCCCCO [C0, 1-Hexadecanol, reference compound]	> 880 µM

Same assay, conditions: Enterobacter cloacae 11936; 48 hrs; read-out: MIC

SMILES	MIC
CCCCCCCCCCCCCCCCO [C0, 1-Hexadecanol, reference compound]	> 880 µM

Each compound was assayed on Burkholderia cepacia (assay: MIC agar dilution, micro-organism 9 (1222)). Conditions: Burkholderia cepacia 1222; 22 hrs; read-out: MIC.
Format: cell-based
Experimental: as §1, §2, §3, §4, §5, §6, §7, §8, §12

SMILES	MIC
CCCCCCCCCCCCCCCCO [C0, 1-Hexadecanol, reference compound]	> 880 µM

Same assay, conditions: Burkholderia cepacia 1222; 48 hrs; read-out: MIC

SMILES	MIC
CCCCCCCCCCCCCCCCO [C0, 1-Hexadecanol, reference compound]	> 880 µM

Each compound was assayed on vancomycin-resistant enterococci (VRE) (assay: MIC agar dilution, summary over 10 VRE strains). Conditions: Enterococcus; most, if not all, of the VRE samples.
Format: cell-based
Experimental: as §9, §10, §11

SMILES	MIC
CCCCCCCCCCCCOCCOCCO [L2, Diethylene Glycol Monododecyl Ether]	≤ 440 µM
CCCCCCCCCCCCOCCOCCOCCOCCO [L4, Tetraethylene Glycol Monododecyl Ether]	≤ 440 µM

What follows are compounds tested on MRSA EMRSA 15 1758/98 (assay: MIC agar dilution, MRSA strain 43). Conditions: Staphylococcus aureus, 22 hrs.
Format: cell-based
Experimental: as §2, §4, §5, §6, §7, §8, §9, §10, §11

SMILES	MIC
CCCCCCCCCCCCOCCOCCOCCOCCOCCOCCOCCO [L7, Heptaethylene Glycol Monododecyl Ether]	220 µM (≈ 109 µg/mL)
CCCCCCCCCCCCOCCOCCO [L2, Diethylene Glycol Monododecyl Ether]	110 µM (≈ 30.2 µg/mL)
CCCCCCCCCCCCOCCOCCOCCOCCOCCOCCOCCOCCO [L8, Octaethylene Glycol Monododecyl Ether]	> 440 µM
CCCCCCCCCCCCOCCOCCOCCOCCO [L4, Tetraethylene Glycol Monododecyl Ether]	55 µM (≈ 19.9 µg/mL)

Same assay, conditions: Staphylococcus aureus, 48 hrs

SMILES	MIC
CCCCCCCCCCCCOCCOCCOCCOCCOCCOCCOCCO [L7, Heptaethylene Glycol Monododecyl Ether]	220 µM (≈ 109 µg/mL)
CCCCCCCCCCCCOCCOCCO [L2, Diethylene Glycol Monododecyl Ether]	110 µM (≈ 30.2 µg/mL)
CCCCCCCCCCCCOCCOCCOCCOCCOCCOCCOCCOCCO [L8, Octaethylene Glycol Monododecyl Ether]	> 440 µM
CCCCCCCCCCCCOCCOCCOCCOCCO [L4, Tetraethylene Glycol Monododecyl Ether]	55 µM (≈ 19.9 µg/mL)

These compounds were tested on Serratia marcescens (assay: MIC agar dilution, micro-organism 5 (10211)). Conditions: Serratia marcescens 10211; 22 hrs; read-out: MIC.
Format: cell-based
Experimental: as §1, §2, §3, §4, §5, §6, §7, §8, §12

SMILES	MIC
CCCCCCCCCCCCCCCCO [C0, 1-Hexadecanol, reference compound]	> 880 µM

Same assay, conditions: Serratia marcescens 10211; 48 hrs; read-out: MIC

SMILES	MIC
CCCCCCCCCCCCCCCCO [C0, 1-Hexadecanol, reference compound]	> 880 µM

The compounds below were run on MRSA EMRSA 16 18200/95 (assay: MIC agar dilution, MRSA strain 48). Conditions: Staphylococcus aureus, 22 hrs.
Format: cell-based
Experimental: as §2, §4, §5, §6, §7, §8, §9, §10, §11

SMILES	MIC
CCCCCCCCCCCCOCCOCCOCCOCCOCCOCCOCCO [L7, Heptaethylene Glycol Monododecyl Ether]	220 µM (≈ 109 µg/mL)
CCCCCCCCCCCCOCCOCCO [L2, Diethylene Glycol Monododecyl Ether]	110 µM (≈ 30.2 µg/mL)
CCCCCCCCCCCCOCCOCCOCCOCCOCCOCCOCCOCCO [L8, Octaethylene Glycol Monododecyl Ether]	> 440 µM
CCCCCCCCCCCCOCCOCCOCCOCCO [L4, Tetraethylene Glycol Monododecyl Ether]	55 µM (≈ 19.9 µg/mL)

Same assay, conditions: Staphylococcus aureus, 48 hrs

SMILES	MIC
CCCCCCCCCCCCOCCOCCOCCOCCOCCOCCOCCO [L7, Heptaethylene Glycol Monododecyl Ether]	> 440 µM
CCCCCCCCCCCCOCCOCCO [L2, Diethylene Glycol Monododecyl Ether]	110 µM (≈ 30.2 µg/mL)
CCCCCCCCCCCCOCCOCCOCCOCCOCCOCCOCCOCCO [L8, Octaethylene Glycol Monododecyl Ether]	> 440 µM
CCCCCCCCCCCCOCCOCCOCCOCCO [L4, Tetraethylene Glycol Monododecyl Ether]	55 µM (≈ 19.9 µg/mL)

Each compound was assayed on methicillin-resistant Staphylococcus aureus (MRSA) (assay: MIC agar dilution, summary over 20 MRSA strains). Conditions: MRSA bacterial samples, 22 and 48 hour.
Format: cell-based
Experimental: as §9, §10, §11

SMILES	MIC
CCCCCCCCCCCCOCCOCCOCCOCCOCCOCCOCCO [L7, Heptaethylene Glycol Monododecyl Ether]	~440 µM (≈ 218 µg/mL)
CCCCCCCCCCCCOCCOCCOCCOCCOCCOCCOCCOCCO [L8, Octaethylene Glycol Monododecyl Ether]	~440 µM (≈ 237 µg/mL)
CCCCCCCCCCCCOCCOCCOCCOCCO [L4, Tetraethylene Glycol Monododecyl Ether]	~55 µM (≈ 19.9 µg/mL)

What follows are compounds tested on Stenotrophomonas maltophilia (assay: Additional antibacterial data, MIC (Table XII)). Conditions: Stenotrophomonas maltophilia 10257; inoculum 10000 cfu/spot; 24 hrs at 37° C.
Format: cell-based
Experimental: Using the protocols outlined in the example above, the inventors further investigated the antibacterial effects of representative alkoxylated alkanol compounds. The inoculum was 10000 cfu/spot; inclubation was for 24 hrs at 37° C.

SMILES	MIC (%) volume/volume
CCCCCCCCCCCCOCCOCCOCCOCCO [L4, Tetraethylene Glycol Monododecyl Ether]	0.06 % volume/volume

Same assay, conditions: relatively low concentrations; 10000 cfu/spot, 24 hrs at 37° C.

SMILES	susceptibility of Stenotrophomonas maltophilia
CCCCCCCCCCCCOCCOCCOCCOCCO [L4, Tetraethylene Glycol Monododecyl Ether]	susceptible
